From BindingDB's records for doi:10.1021/acs.jmedchem.9b02038 (China Pharmaceutical University, 2020)

Legend:
[1] = Inhibition of Vps34 in human MCF7-LC3 cells assessed as starvation-induced autophagy
[2] = Inhibition of Vps34 in human MCF7-LC3 cells assessed as rapamycin-induced autophagy

## Cc1cc(Nc2cc(Cl)nc(Oc3ccc([N+](=O)[O-])cc3)n2)n[nH]1
[1]
  IC50: 90 nM
[2]
  IC50: 40 nM
